Data published in the NIST ThermoML archive (doi:10.1016/j.fluid.2014.06.021).
Numbers after ± are expanded uncertainties.

Experiment: activity coefficient (dimensionless); of the first substance listed, at infinite dilution; xn = mol fraction of the nth substance listed
Details: 101.33 kPa, Liquid, Chromatography, x1 = 0

Question: Which results are given for `CCC(C)=O` [butanone] + C[n+]1ccn(CCCCS(=O)(=O)O)c1.O=S(=O)([O-])O?
Answer: activity coefficient (323.15 K): 5.49 ± 0.37; activity coefficient (333.15 K): 5.17 ± 0.35; activity coefficient (343.15 K): 4.47 ± 0.3

Question: With `C1CCCCCC1` [cycloheptane] + C[n+]1ccn(CCCCS(=O)(=O)O)c1.O=S(=O)([N-]S(=O)(=O)C(F)(F)F)C(F)(F)F as the compound, how does the activity coefficient (323.15 K) read?
Answer: Its activity coefficient is 92.5 ± 6.4.

Question: What about the activity coefficient (333.15 K) of the same compound?
Answer: Its activity coefficient is 144 ± 9.9.

Question: And the activity coefficient (343.15 K)?
Answer: Its activity coefficient is 180 ± 12.

Question: What does the source list for `C1CCCCCC1` [cycloheptane] + C[n+]1ccn(CCCCS(=O)(=O)O)c1.O=S(=O)([O-])C(F)(F)F?
Answer: activity coefficient (323.15 K): 225 ± 15; activity coefficient (333.15 K): 270 ± 19; activity coefficient (343.15 K): 287 ± 20

Question: With `CCCCCCCCCC` [decane] + C[n+]1ccn(CCCCS(=O)(=O)O)c1.O=S(=O)([N-]S(=O)(=O)C(F)(F)F)C(F)(F)F as the compound, how does the activity coefficient (323.15 K) read?
Answer: The activity coefficient was 371 ± 26.

Question: What about the activity coefficient (333.15 K) of the same compound?
Answer: The activity coefficient was 336 ± 23.

Question: What about the activity coefficient (343.15 K) of the same compound?
Answer: Its activity coefficient is 281 ± 19.

Question: Which activity coefficient (323.15 K) does the source give for `ClCCl` [dichloromethane] + C[n+]1ccn(CCCCS(=O)(=O)O)c1.O=S(=O)([N-]S(=O)(=O)C(F)(F)F)C(F)(F)F here?
Answer: The activity coefficient was 1.08 ± 0.07.

Question: And the activity coefficient (333.15 K)?
Answer: The activity coefficient was 1.18 ± 0.08.

Question: And the activity coefficient (343.15 K)?
Answer: Its activity coefficient is 1.28 ± 0.08.

Question: Which results are given for `ClCCl` [dichloromethane] + C[n+]1ccn(CCCCS(=O)(=O)O)c1.O=S(=O)([O-])C(F)(F)F?
Answer: activity coefficient (323.15 K): 1.3 ± 0.08; activity coefficient (333.15 K): 1.46 ± 0.1; activity coefficient (343.15 K): 1.61 ± 0.11

Question: For `ClCCl` [dichloromethane] + C[n+]1ccn(CCCCS(=O)(=O)O)c1.O=S(=O)([O-])O, which activity coefficient (323.15 K) is on record?
Answer: The activity coefficient was 3.5 ± 0.24.

Question: And the activity coefficient (333.15 K)?
Answer: The activity coefficient was 3.48 ± 0.24.

Question: What about the activity coefficient (343.15 K) of the same compound?
Answer: The activity coefficient was 3.37 ± 0.23.

Question: For `CCOCC` [diethyl ether] + C[n+]1ccn(CCCCS(=O)(=O)O)c1.O=S(=O)([N-]S(=O)(=O)C(F)(F)F)C(F)(F)F, which activity coefficient (323.15 K) is on record?
Answer: Its activity coefficient is 0.4 ± 0.1.

Question: And the activity coefficient (333.15 K)?
Answer: The activity coefficient was 0.53 ± 0.04.

Question: What about the activity coefficient (343.15 K) of the same compound?
Answer: Its activity coefficient is 0.65 ± 0.04.

Question: Which activity coefficient (323.15 K) does the source give for `CCOCC` [diethyl ether] + C[n+]1ccn(CCCCS(=O)(=O)O)c1.O=S(=O)([O-])C(F)(F)F here?
Answer: The activity coefficient was 4.51 ± 0.31.

Question: What about the activity coefficient (333.15 K) of the same compound?
Answer: The activity coefficient was 4.36 ± 0.3.

Question: And the activity coefficient (343.15 K)?
Answer: The activity coefficient was 4.21 ± 0.29.

Question: Which results are given for `CC(C)OC(C)C` [diisopropyl ether] + C[n+]1ccn(CCCCS(=O)(=O)O)c1.O=S(=O)([O-])C(F)(F)F?
Answer: activity coefficient (323.15 K): 11.7 ± 0.8; activity coefficient (333.15 K): 13.3 ± 0.91; activity coefficient (343.15 K): 14.9 ± 1

Question: Which activity coefficient (323.15 K) does the source give for `CCCCCCCCCCCC` [dodecane] + C[n+]1ccn(CCCCS(=O)(=O)O)c1.O=S(=O)([N-]S(=O)(=O)C(F)(F)F)C(F)(F)F here?
Answer: Its activity coefficient is 684 ± 47.

Question: What about the activity coefficient (333.15 K) of the same compound?
Answer: The activity coefficient was 588 ± 40.

Question: What about the activity coefficient (343.15 K) of the same compound?
Answer: The activity coefficient was 557 ± 38.

Question: Which activity coefficient (323.15 K) does the source give for `CCCCCCCCCCCC` [dodecane] + C[n+]1ccn(CCCCS(=O)(=O)O)c1.O=S(=O)([O-])C(F)(F)F here?
Answer: Its activity coefficient is 1490 ± 100.

Question: What about the activity coefficient (333.15 K) of the same compound?
Answer: Its activity coefficient is 1020 ± 70.

Question: And the activity coefficient (343.15 K)?
Answer: Its activity coefficient is 997 ± 69.

Question: Which results are given for `CCCCCCCCCCCC` [dodecane] + C[n+]1ccn(CCCCS(=O)(=O)O)c1.O=S(=O)([O-])O?
Answer: activity coefficient (323.15 K): 1310 ± 90; activity coefficient (333.15 K): 1200 ± 82; activity coefficient (343.15 K): 1140 ± 79

Question: What does the source list for `CCO` [ethanol] + C[n+]1ccn(CCCCS(=O)(=O)O)c1.O=S(=O)([N-]S(=O)(=O)C(F)(F)F)C(F)(F)F?
Answer: activity coefficient (333.15 K): 0.08 ± 0.03; activity coefficient (343.15 K): 0.1

Question: With `CCc1ccccc1` [ethylbenzene] + C[n+]1ccn(CCCCS(=O)(=O)O)c1.O=S(=O)([N-]S(=O)(=O)C(F)(F)F)C(F)(F)F as the compound, how does the activity coefficient (323.15 K) read?
Answer: The activity coefficient was 5.37 ± 0.37.

Question: What about the activity coefficient (333.15 K) of the same compound?
Answer: Its activity coefficient is 5.79 ± 0.39.

Question: And the activity coefficient (343.15 K)?
Answer: Its activity coefficient is 5.8 ± 0.4.

Question: With `CCc1ccccc1` [ethylbenzene] + C[n+]1ccn(CCCCS(=O)(=O)O)c1.O=S(=O)([O-])C(F)(F)F as the compound, how does the activity coefficient (323.15 K) read?
Answer: The activity coefficient was 10.8 ± 0.74.

Question: And the activity coefficient (333.15 K)?
Answer: The activity coefficient was 10.3 ± 0.7.

Question: And the activity coefficient (343.15 K)?
Answer: Its activity coefficient is 10.3 ± 0.7.

Question: Which activity coefficient (323.15 K) does the source give for `CCc1ccccc1` [ethylbenzene] + C[n+]1ccn(CCCCS(=O)(=O)O)c1.O=S(=O)([O-])O here?
Answer: Its activity coefficient is 62.7 ± 4.3.

Question: And the activity coefficient (333.15 K)?
Answer: The activity coefficient was 57.6 ± 3.9.

Question: And the activity coefficient (343.15 K)?
Answer: The activity coefficient was 54.5 ± 3.7.

Question: With `CO` [methanol] + C[n+]1ccn(CCCCS(=O)(=O)O)c1.O=S(=O)([N-]S(=O)(=O)C(F)(F)F)C(F)(F)F as the compound, how does the activity coefficient (323.15 K) read?
Answer: Its activity coefficient is 0.06.

Question: And the activity coefficient (333.15 K)?
Answer: Its activity coefficient is 0.08 ± 0.03.

Question: And the activity coefficient (343.15 K)?
Answer: Its activity coefficient is 0.09 ± 0.03.

Question: Which activity coefficient (323.15 K) does the source give for `C[N+](=O)[O-]` [nitromethane] + C[n+]1ccn(CCCCS(=O)(=O)O)c1.O=S(=O)([N-]S(=O)(=O)C(F)(F)F)C(F)(F)F here?
Answer: The activity coefficient was 0.6 ± 0.1.

Question: And the activity coefficient (333.15 K)?
Answer: The activity coefficient was 0.6 ± 0.1.

Question: What about the activity coefficient (343.15 K) of the same compound?
Answer: The activity coefficient was 0.6 ± 0.1.

Question: Which activity coefficient (323.15 K) does the source give for `C[N+](=O)[O-]` [nitromethane] + C[n+]1ccn(CCCCS(=O)(=O)O)c1.O=S(=O)([O-])C(F)(F)F here?
Answer: Its activity coefficient is 0.72 ± 0.05.

Question: What about the activity coefficient (333.15 K) of the same compound?
Answer: The activity coefficient was 0.71 ± 0.05.

Question: What about the activity coefficient (343.15 K) of the same compound?
Answer: The activity coefficient was 0.71 ± 0.05.

Question: Which activity coefficient (323.15 K) does the source give for `C[N+](=O)[O-]` [nitromethane] + C[n+]1ccn(CCCCS(=O)(=O)O)c1.O=S(=O)([O-])O here?
Answer: Its activity coefficient is 1.58 ± 0.1.

Question: What about the activity coefficient (333.15 K) of the same compound?
Answer: Its activity coefficient is 1.59 ± 0.11.

Question: And the activity coefficient (343.15 K)?
Answer: Its activity coefficient is 1.6 ± 0.11.

Question: What does the source list for `CCCC(C)=O` [pentan-2-one] + C[n+]1ccn(CCCCS(=O)(=O)O)c1.O=S(=O)([N-]S(=O)(=O)C(F)(F)F)C(F)(F)F?
Answer: activity coefficient (323.15 K): 0.42 ± 0.04; activity coefficient (333.15 K): 0.52 ± 0.04; activity coefficient (343.15 K): 0.64 ± 0.04

Question: What does the source list for `CCCC(C)=O` [pentan-2-one] + C[n+]1ccn(CCCCS(=O)(=O)O)c1.O=S(=O)([O-])C(F)(F)F?
Answer: activity coefficient (323.15 K): 2.11 ± 0.14; activity coefficient (333.15 K): 2.14 ± 0.15; activity coefficient (343.15 K): 2.19 ± 0.15
